In article PMC13195669, “GPR3 Ligands Discovered through Combined Virtual and Conformational Biosensor-Based Screening” (Journal of the American Chemical Society, 2026):

What follows are compounds tested on β2AR (assay: β2AR-HaloTag/Nluc conformational biosensor (negative control) in HEK293A cells). Conditions: β2AR-HaloTag/Nluc as negative control; HEK293A stable.
Type: cell-based, human
Procedure: Initially, all 93 molecules were tested for activity at the GPR3 biosensor at a concentration of 1 μM (Figure a). […] Of the five compounds that emerged from the virtual screen, three–hereafter referred to as virtual hit 1–3, VH1/2/3–were selected for in-house chemical synthesis (compounds 52, 93, and 115; cf. Scheme , Figure S6), providing compounds of ≥99% purity for hit validation (NMR spectra: Figures S7–S142; HPLC purity: Figures S143–S218). For VH1, the racemic mix, rac-VH1/52, was synthesized and used for testing. Compounds 52, VH2/93, and VH3/115 (Figure S6) were then validated with the GPR3 biosensor including β2AR-HaloTag/Nluc as a negative control.
BRET-based GPCR conformational sensor experiments
Cells expressing the conformational GPCR biosensors were grown for 24 h (stable cells) or 48 h (transiently transfected cells) in white 96-well plates and washed with 100 µl of HBSS. After washing, cells were incubated for 2 minutes with a 1/1000 solution of the furimazine stock solution (Promega; cat. no. N1662). Three baseline BRET reads were recorded and averaged prior to the addition of serial dilutions of ligands or veh icle control and subsequent BRET reads. All experiments were con-ducted at 37 °C. BRE T donor emission was quantified with a 470/80 nm monochromator. BRET acceptor emission was quan-tified using a 660/100 nm monochromator. Experiments were carried out using a CLARIOstar plate reader. […]
FRET and BRET ratios were defined as acceptor emission/donor emission. […] To quantify ligand-induced changes ΔFRET and ΔBRET were calculated for each well as a percent over basal ([(Ratiostim − Ratiobasal)/Ratiobasal] × 100). […]
Data from FRET/BRET experiments were fitted using a three-parameter fit. Z-factors expressing the high-throughput suita-bility were calculated with the following equation: […]
Commercially available chemicals and solvents were purchased from standard commercial suppliers (Merck (Darmstadt, Ger-many), Sigma-Aldrich (Munich, Germany), Acros Organics (Geel, Belgium), Alfa Aesar (Karlsruhe, Germany), abcr (Karlsruhe, Germany), BLD Pharmatech (Reinbek, Germany) or TCI Europe (Zwijndrecht, Belgium) and were used as received. Deuter-ated solvents for nuclear magnetic resonance (1H NMR and 13C NMR) spectra were purchased from Deutero GmbH (Kastel-laun, Germany). All reactions carried out with dry solvents were accomplished in dry flasks under nitrogen or argon atmos-phere. For the preparation of buffers, HPLC eluents, and stock solutions millipore water was used. […] The reactions were monitored by thin layer chromatography (TLC) on Merck silica gel 60 F254 aluminium sheets and spots were visualized under UV light at 254 nm, by potassium permanganate or ninhydrin staining. […]

SMILES | specificity of conformational response for GPR3 vs β2AR-HaloTag/Nluc
N=c1n(Cc2ccccc2)c2ccccc2n1CC1CC1 [compound 33] | selectivity for GPR3 over β2AR
N=c1n(Cc2ccccc2)c2ccccc2n1CC(O)COc1ccc(Cl)cc1 (stereo not drawn) [compound 52] | concentration-dependent and GPR3-specific conformational changes
Cc1ccc(NC(=O)CN2CCN(C(=O)CCc3ccc(Cl)cc3)CC2)cc1 [compound 115] | concentration-dependent and GPR3-specific conformational changes
